Experimental data: US20240207214A1, “FATTY ACID LACTYLATES FOR USE IN TREATING RUMINANT ANIMALS” (FORFARMERS CORPORATE SERVICES B.V., priority 2021, published 2024)

Columns and labels:
Assay type in all cases: in vivo
Settings in all cases: diet supplementation, 10 ruminants per group; putative results
ruminants [1] = assay: comparison of lactylates: effect on methane emission
Protocol: The well documented in vitro gas production technique (batch culture) (Soliva et al., Letters in Applied Microbiology 2003, 37, 35-39) was used in this study. The rumen fluid used in this incubation was obtained before the morning feeding from 3 rumen fistulated dairy cows on a basal diet composed of 50% maize silage and 50% wilted grass silage (on DM basis), supplemented with some straw and soybean meal. In addition, a balanced compound feed was fed to fulfill the animals' requirements for milk production. The rumen fluid of the three animals was mixed and used to prepare the inoculum. Incubations were performed in sealed 125-mL flasks, in triplicate. The supplements comprising the lactylates (in this case applied as ALOAPUR® powder as obtained from Purac/Corbion) at the level of 1 mg per ml buffered rumen fluid (see below), as well as the simulated dairy cow ration were added to the incubation flasks. On the day of the incubation, the flasks were sealed and flushed with CO2. To each flask, 25 mL of CO2-saturated bicarbonate/phosphate buffered rumen fluid was added (buffer:rumen fluid 4:1, v:v) before the onset of the in vitro incubations at 39° C. in a shaking incubator (Edmund Bühler Gmbh, Hechingen, Germany). After 24 h incubation period, the flasks were removed from the incubator and put directly in an ice bath to stop the microbial activity. Total gas pressure was measured, and the gas phase was sampled for gas composition analysis. Afterwards, pH was measured, and samples were collected for volatile fatty acids (VFA) analysis and protozoa numbers counting. […] Methane emission is determined as described in Example 1; SCC, BC and mastitis effects are determined as described in Example 2. Effect on fecal consistency and effect on milk yield is determined as described in Example 3. The different lactylates are stearoyl lactylate, lauroyl lactylate, myristoyl lactylate, cetyl lactylate, palmitoyl lactylate and oleic lactylate. As control, the same diet without lactylates is supplied.

ruminants [2] = assay: comparison of lactylates: effect on SCC, BC and mastitis
Protocol: Two experiments were carried out to evaluate the efficacy of lactylates in stimulating udder health. The first experiment was conducted with goats and the second with dairy cows. In the first experiment, a goat farm was used. The farm had issues with udder health and had high levels of somatic cell count (SCC) and bacterial counts (BC) in milk delivered. Performance and udder health data were collected every 4 weeks from shortly before starting the experiment for a duration of 3 months. During the experiment all goats on the farm were offered a ration supplemented with lactylates (in this case applied as ALOAPUR® powder as obtained from Purac/Corbion) (added to the compound feed, 3.5 to 7 g per goat per day). During the 3-month study period, every 3 to 4 weeks, data on performance and udder health was collected. The 2nd study was conducted on 7 dairy farms. […] Lactylates were supplemented to the ration of the cows on those farms via the compound feed (25 to 40 g per cow per day). The study lasted for 3 months. Performance and udder health data were collected at the beginning and every 4 weeks of the study. […] Methane emission is determined as described in Example 1; SCC, BC and mastitis effects are determined as described in Example 2. Effect on fecal consistency and effect on milk yield is determined as described in Example 3. The different lactylates are stearoyl lactylate, lauroyl lactylate, myristoyl lactylate, cetyl lactylate, palmitoyl lactylate and oleic lactylate. As control, the same diet without lactylates is supplied.

ruminants [3] = assay: comparison of lactylates: effect on fecal consistency score
Protocol: (§1) Two experiments were carried out to evaluate the efficacy of lactylate in stimulating intestinal absorptive capacity and improving fecal consistency, dry matter content and scores and milk fat yield. The first experiment was conducted with goats and the second with dairy cows. The focus of the first experiment was the absorptive capacity and fecal consistency and scores, while the 2nd experiment focused on the effect on milk fat yield. In the first experiment, a goat farm was used. The farm had issues with fecal consistency, having at least 30 goats per pen with low fecal consistency. Fecal consistency and scores per pen were recorded 2 times per week from the start of the experiment for a period of 3 months. The goats in the farm were supplemented with lactylates (in this case applied as ALOAPUR® powder as obtained from Purac/Corbion) (added to the compound feed) at the rate of 3.5 to 7 g per goat per day. The 2nd study focused on the effect on milk fat yield and was conducted at a dairy research farm. The herd (120 cows) was divided into 2 groups blocked on days in milk, milk yield and milk fat %. One group was supplemented with 50 g of lactylates per cow per day while the other group served as a control. The ration for both groups was similar and was balanced on energy, protein and minerals and vitamins. The experiment lasted for 9 week. Performance data was collected/recorded on weekly basis. […] Methane emission is determined as described in Example 1; SCC, BC and mastitis effects are determined as described in Example 2. Effect on fecal consistency and effect on milk yield is determined as described in Example 3. The different lactylates are stearoyl lactylate, lauroyl lactylate, myristoyl lactylate, cetyl lactylate, palmitoyl lactylate and oleic lactylate. As control, the same diet without lactylates is supplied.

ruminants [4] = assay: comparison of lactylates: effect on milk fat yield
Protocol: as §1

Compound | Methane emission reduction relative to control (ruminants [1]) | BC in milk reduced relative to control (ruminants [2]) | SCC in milk reduced relative to control (ruminants [2]) | incidence of mastitis reduced relative to control (ruminants [2]) | Number of ruminants with low fecal consistency reduced relative to control (ruminants [3]) | Average milk fat yield increased relative to control (ruminants [4])
CCCCCCCCCCCC(=O)OC(C)C(=O)O (stereo not drawn) [Lauroyl lactylate, lauroyl lactylate] | by >90% | by >20%, | by >20%, | by >25% | by >50% | by >10%
CCCCCCCCCCCCCC(=O)OC(C)C(=O)O (stereo not drawn) [Myristoyl lactylate, myristoyl lactylate] | by >90% | by >20%, | by >20%, | by >25% | by >50% | by >10%
CCCCCCCC/C=C\CCCCCCCC(=O)OC(C)C(=O)O (stereo not drawn) [Oleic lactylate, oleic lactylate] | by >90% | by >20%, | by >20%, | by >25% | by >50% | by >10%
CCCCCCCCCCCCCCCC(=O)OC(C)C(=O)O (stereo not drawn) [Palmitoyl lactylate, palmitoyl lactylate] | by >90% | by >20%, | by >20%, | by >25% | by >50% | by >10%
cetyl lactylate | by >90% | by >20%, | by >20%, | by >25% | by >50% | by >10%
